Results from patent US11207285B2, “Diabetes treatment regimens using alpha, alpha-substituted long-chain amphipathic carboxylates” (SYNDROMEX LTD., priority 2016, dated 2021).
Values joined by “and” are separate entries in the source; they are usually repeats but may differ in a detail not shown here. Equal values may be shown once.

Legend:
[1] = test system: fully differentiated 3T3L1 adipocytes; experiment: glucose uptake in 3T3L1 adipocytes; type: cell-based; conditions: insulin as positive control
Description: (§1) The compound 2,2,15,15-tetramethylhexadecane-1,16-dioic acid (also designated M16αα), and also the compounds […] (M18αα) and 2,2,19,19-tetramethyl-[…]-1,20-dioic acid (M20αα), were tested for their effect on glucose uptake and production, and the expression of glucose- and lipid-related genes in in vitro models. […] Inhibition of glucose production was tested in HepG2 human liver cells.

[2] = test system: Type 2 Diabetes Mellitus (T2D) patients; experiment: 4-week M16αα study in T2D patients, efficacy; type: in vivo, human; conditions: for Comp ISI / HP ISI / HbA1c Day 90 - extrapolated / IR / HbA1c Day 28: after
Text: Exploratory, double-blind, randomized, placebo-controlled study, to evaluate the safety, efficacy and pharmacokinetics of 4-week M16αα treatment of Type 2 Diabetes Mellitus (T2D) patients. T2D patients were either non-treated or receiving ongoing treatment with metformin alone or in combination with other standard-of-care (SoC) oral or parenteral antidiabetic drug/s. T2D patients, non-treated or treated with SoC antidiabetic drugs as outlined below, were screened for eligibility (inclusion/exclusion according to criteria detailed below), followed by being randomly allocated to receive once daily either add-on M16αα (40 mg M16αα plus 130 mg microcrystalline cellulose in gelatin capsules) or add-on placebo (130 mg microcrystalline cellulose in gelatin capsules), in addition to the SoC anti-diabetic treatment they have been receiving regularly. One patient was not under SoC anti-diabetic drug treatment. Sixteen (16) patients were randomized to M16αα treatment and 3 patients were randomized to placebo treatment. Patients randomized to M16αα treatment were dosed for 28 days with add-on M16αα in double-blinded manner, followed by 4-week recovery period using add-on placebo in a single-blinded manner. Patients randomized to placebo treatment were dosed for 28 days with add-on placebo in double-blinded manner. Cohort 1 included 6 uncontrolled T2D patients (HbA1c>7.3%), 5 treated for their hyperglycemia by metformin only (patients 101, 102, 103, 105, 106), and one naïve patient (not under SoC anti-diabetic treatment, patient 108). Cohort 2 included 6 T2D patients (HbA1c>7.3%) (patients 202, 203, 205, 206, 207, 210) treated for their hyperglycemia by a variety of SoC anti-diabetic drug/s except insulin/insulin analogs (metformin plus sulphonylurea and/or DPP4 inhibitor and/or GLP1 analog and/or SGLT2 inhibitor). Cohort 3 included 4 T2D patients (HbA1c>7.3%) treated for their hyperglycemia by basal insulin analogs and a variety of anti-diabetic drugs (metformin and/or sulphonylurea and/or DPP4 inhibitor and/or GLP1 analog and/or SGLT2 inhibitor). During the study period the subjects underwent physical examination, clinical pathology, hematology, urinalysis, lipid profile, HbA1C, continuous glucose monitoring (CGM) and an oral glucose tolerance test (OGTT) (75 g glucose; glucose, insulin, c-peptide; 0, 30, 60, 120, 180 min) prior to dosing, upon end of M16αα treatment, and following the recovery period (EOS visit). HbA1c, Continuous glucose monitoring (CGMS), OGTT (Glucose/Insulin/C-peptide), HOMA, Hepatic Insulin Sensitization Index (HP ISI), Composite insulin sensitization index (Comp ISI), Insulin resistance (IR), plasma lipid profile (Triglycerides, Cholesterol, LDL-C, VLDL-C, HDL-C, non-HDL-C, apoB), hsCRP, Fibrinogen. All measured variables and derived parameters were listed individually and tabulated by descriptive statistics. For descriptive statistics summary tables were provided giving sample size, means, standard deviations and 95% CI (Confidence Interval) or frequency with percentage according to the scale of the variable. Regarding small sample size, non-parametric methods were conducted: Differences between end of drug dosing and baseline for each efficacy parameter were analyzed using the Wilkcoxon matched-pairs signed-ranks test. Differences between M16αα-treated and placebo groups were analyzed for each efficacy parameter using the Mann-Whitney two-sample U-test. Drug: 40 mg 2,2,15,15-tetramethylhexadecane-dioic acid (M16αα) per day, in a gelatin capsule. This daily dose of M16αα is based on safety and PK considerations in a previous, single-dose study in healthy volunteers and pre-clinical data. Administration: oral, before breakfast, with 240 ml water, for both drug and placebo. M16αα or placebo were administered orally for 28 consecutive days, followed by additional 28 days of placebo. End of Study (EOS) visit took place about 4 weeks after last dose of M16αα administered. […]

[3] = test system: Sterol response element binding protein 1 & 2 (SREBP); experiment: transcriptional activity of SREBP
[4] = target: Signal transducer and activator of transcription 3 (STAT3) (Homo sapiens, UniProt P40763); experiment: transcriptional activity of STAT3
Sequence of Signal transducer and activator of transcription 3 (STAT3) (P40763 whole entry, species assumed): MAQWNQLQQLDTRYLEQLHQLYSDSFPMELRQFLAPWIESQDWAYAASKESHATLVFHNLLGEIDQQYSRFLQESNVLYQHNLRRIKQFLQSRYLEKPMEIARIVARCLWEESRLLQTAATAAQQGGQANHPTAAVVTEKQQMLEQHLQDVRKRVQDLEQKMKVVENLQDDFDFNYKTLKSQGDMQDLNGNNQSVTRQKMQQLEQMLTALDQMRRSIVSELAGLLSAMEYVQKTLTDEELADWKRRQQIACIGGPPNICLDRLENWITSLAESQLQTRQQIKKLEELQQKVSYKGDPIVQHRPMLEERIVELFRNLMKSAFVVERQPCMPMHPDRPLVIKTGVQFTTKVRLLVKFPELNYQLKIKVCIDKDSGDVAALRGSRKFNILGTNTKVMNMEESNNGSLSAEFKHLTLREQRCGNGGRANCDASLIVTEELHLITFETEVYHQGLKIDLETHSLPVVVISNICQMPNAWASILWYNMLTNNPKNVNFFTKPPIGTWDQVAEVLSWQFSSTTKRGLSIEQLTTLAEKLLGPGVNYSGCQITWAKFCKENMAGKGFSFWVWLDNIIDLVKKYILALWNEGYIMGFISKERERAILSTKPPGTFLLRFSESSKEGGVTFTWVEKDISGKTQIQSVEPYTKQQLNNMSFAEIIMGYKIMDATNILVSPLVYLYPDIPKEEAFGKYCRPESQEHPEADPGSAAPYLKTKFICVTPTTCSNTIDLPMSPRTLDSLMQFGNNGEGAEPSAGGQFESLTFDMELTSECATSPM

HepG2 human liver cells = experiment: inhibition of glucose production in HepG2 cells; type: cell-based
Description: as §1

[5] = 4-week M16αα study in T2D patients, trough plasma levels; type: in vivo, human; conditions: Cohort 1 patients, 40 mg once daily oral, 28-day dosing period
Description: Pre-dose blood samples to determine trough levels of M16αα were collected in lithium heparin tubes at the following dosing days: 1, 8, 15, 28, and EOS visit. Plasma M16αα concentrations have been presently processed for Cohort 1 patients only. […] Calculated PK parameters: Pre-dose Css.
Plasma concentrations of M16αα are determined by a validated LC/MS method. The lower and upper limits of quantitation for M16αα concentrations are 100 ng/mL and 5000 ng/mL, respectively. The assay is linear from 0.1-5 μg/mL. Dilution extends the range to 100 μg/mL

[6] = test system: mitochondrial permeability transition pore (PTP); experiment: gating of mitochondrial PTP; conditions: mild decoupling of mitochondrial oxidative phosphorylation
[7] = Cohort 1 single patients 101, 102, 106 on metformin only, add-on 40 mg/day
[8] = Cohort 2 single patients 202, 205, 206 on SoC drugs except insulin, add-on 40 mg/day
[9] = Cohort 3 single patients 301-304 on basal insulin analogs and other drugs, add-on 40 mg/day
[10] = patient 108, no ongoing anti-diabetic treatment, 40 mg/day
[11] = baseline 1.0, all patients on add-on M16αα
[12] = estimated by linear extrapolation from 28 d
[13] = weighted average, all patients on add-on M16αα

transcriptional activity of SREBP [3]: suppressing | transcriptional activity of STAT3 [4]: suppressing
SMILES: CC(C)(CCCCCCCCCCCCC(C)(C)C(=O)O)C(=O)O [M16αα, 2,2,15,15-tetramethyl-hexadecane-1,16-dioic acid]
glucose uptake [1]: increase glucose uptake | Continuous glucose monitoring [CGM(<180 mg %)], Change in Baseline: Increase by ([2]; % of time with glucose lower than 180 mg %, baseline 71 ± 25%): Increase by 8.4% | insulin sensitizing activity compared with add-on pioglitazone ([2]; M16αα added-on to metformin): surpasses that reported for add-on Pio | diabetic profile ([2]; T2D patient not under anti-diabetic SoC, low dose): significantly improved diabetic profile | prospective glucose-lowering activity compared with SoC oral anti-diabetic drugs ([2]; add-on M16αα): surpasses those reported for current SoC oral anti-diabetic drugs | Comp ISI [2, 7]: 19.17 and 5.0 and 10.10 | HP ISI [2, 7]: 9.5 and 2.3 and 2.1 | HbA1c Day 90 - extrapolated [2, 7]: 5.3 and 5.9 and 5.4 | IR [2, 7]: 0.4 and 0.6 and 0.5 | HbA1c Day 28 ([2]; Cohort 1 single patients 101, 102, 106 on metformin only, add-on 40 mg/day oral 28 d): 6.7 and 6.9 and 6.8 | Comp ISI [2, 8]: 2.2 and 4.7 and 5.5 | HP ISI [2, 8]: 0.4 and 0.6 and 1.1 | HbA1c Day 90 - extrapolated [2, 8]: 6.0 and 8.1 and 4.1 | IR [2, 8]: 2.2 and 1.8 and 0.9 | HbA1c Day 28 ([2]; Cohort 2 single patients 202, 205, 206 on SoC drugs except insulin, add-on 40 mg/day oral 28 d): 6.8 and 8.1 and 7.1 | Comp ISI [2, 9]: 4.6 and 6.9 and 6.3 | HP ISI [2, 9]: 0.79 and 0.88 and 1.33 and 1.41 | IR [2, 9]: 1.4 and 1.1 and 0.8 and 0.7 | HbA1c Day 28 ([2]; Cohort 3 single patients 301-304 on basal insulin analogs and other drugs, add-on 40 mg/day oral 28 d): 8.17 and 7.33 and 7.52 and 8.73 | Comp ISI [2, 10]: 5.8 | HP ISI [2, 10]: 1.6 | HbA1c Day 90 - extrapolated [2, 10]: 7.6 | IR [2, 10]: 0.6 | HbA1c Day 28 ([2]; patient 108, no ongoing anti-diabetic treatment, 40 mg/day oral 28 d): 7.6 | Composite insulin sensitization index (CompISI), Change in Baseline: Increase by [2, 11]: Increase by 2.04-fold | HOMA insulin resistance (HOMAIR), Change in Baseline: Increase by [2, 11]: Increase by 0.59-fold | Hepatic insulin sensitization index (HepISI), Change in Baseline: Increase by [2, 11]: Increase by 2.50-fold | HOMA % B, Change in Baseline: Decrease by ([2]; baseline 1.0, beta-cell rest): Decrease by 0.81-fold | Bodyweight, Change in Baseline: Decrease by ([2]; baseline 88 ± 9 kg): Decrease by 0.6 kg | Σglucose (OGTT 0, 30, 60, 120, 180 min), Change in Baseline: Decrease by ([2]; baseline 100, all patients on add-on M16αα): Decrease by 7.8% | Σc-peptide (OGTT 0, 30, 60, 120, 180 min), Change in Baseline: Decrease by ([2]; baseline 100, beta-cell rest): Decrease by 17% | Hypertension, Change in Baseline ([2]; baseline 136 ± 13/75 ± 7): Decrease in 5 patients | Fasting blood glucose (FBG), Change in Baseline: Decrease by ([2]; baseline 159 ± 56 mg/dL, all patients on add-on M16αα): Decrease by 11.7% | Plasma triglycerides, Change in Baseline: Decrease by ([2]; baseline 169 ± 95 mg/dL): Decrease by 18% | HbA1C (%) (Estimated 90 d), Change in Baseline: Decrease by [2, 12]: Decrease by 0.96-1.44% | HbA1C (Estimated 90 d), Change in Baseline: Decrease [2, 12]: (10.6-15.8 mmol/mol) | HbA1C (Estimated 90 d), Change in Baseline: Decrease as eAG [2, 12]: (eAG 28-42 mg/dL) | effectiveness as add-on drug ([2]; patients under anti-diabetic SoC): effective as an add-on drug | HbA1C (28 d), Change in Baseline: Decrease [2, 13]: (5.28 mmol/mol) | HbA1C (28 d), Change in Baseline: Decrease as eAG [2, 13]: (eAG 14 mg/dL) | HbA1C (%) (28 d), Change in Baseline: Decrease by ([2]; weighted average, all patients on add-on M16αα 40 mg/day, baseline 7.96 ± 0.81): Decrease by 0.48% | hepatic glucose production (HepG2 human liver cells): significant or full inhibition | trough M16αα plasma concentrations [5]: increased progressively throughout the 28-day dosing period | gating of mitochondrial PTP [6]: induces low-conductance gating of mitochondrial PTP
